Assay results from US12576099B2, “Ribose-modified cap analog and use thereof” (Beijing Youcare Kechuang Pharmaceutical Technology Co., Ltd., priority 2024, dated 2026).

Columns and labels:
[1] = Characterization of lipid nanoparticles encapsulating Fluc-mRNA prepared from different cap structures; type: physicochemical; settings: for Particle size: LNP (YK-009/DSPC/cholesterol/DMG-PEG2000) with Fluc-mRNA transcribed using the named cap analog; for PDI: LNP with Fluc-mRNA transcribed using the named cap analog; for EE: encapsulation efficiency of LNP with Fluc-mRNA transcribed using the named cap analog
Procedure: Cationic lipid YK-009 (Beijing Youcare Kechuang Pharmaceutical Technology Co., Ltd.), DSPC (AVT (Shanghai) Pharmaceutical Technology Co., Ltd.), cholesterol (AVT (Shanghai) Pharmaceutical Technology Co., Ltd.), and DMG-PEG2000 were dissolved in ethanol at a molar ratio of 49:10:39.5:1.5, and the mRNA was diluted in 50 mM citrate buffer (pH=4). The ethanol lipid solution was mixed with the Fluc-mRNA aqueous solution prepared from different cap structures at a volume ratio of 1:3 using a microfluidic device at a flow rate of 10 mL/min to prepare LNPs at a weight ratio of total lipid to mRNA of approximately 15:1.
The resulting liposomes were diluted to 10-fold volume with PBS, and then ultrafiltered with a 300 KDa ultrafiltration tube to remove ethanol. The volume was then fixed to a certain volume with PBS. Finally, the LNPs were filtered through a 0.2 μm sterile filter to obtain an LNP preparation encapsulating Fluc-mRNA using YK-009/DSPC/cholesterol/DMG-PEG2000 (at a molar ratio of 49:10:39.5:1.5).
The particle size and polydispersity index (PDI) were determined by dynamic light scattering using a Malvern laser particle size analyzer. 10 μL of the liposome solution was taken, diluted to 1 mL with RNase-free deionized water, and added to a sample pool. Each sample was measured in triplicate. The measurement conditions were: a scattering angle of 90° and a temperature of 25° C. The encapsulation efficiency of LNPs was determined using the Quant-iT RiboGreen RNA Quantification Kit (Thermo Fisher Scientific, UK) according to the manufacturer's instructions.

HEK293T cells = experiment: Translation efficiency of different capped luciferase mRNAs; type: cell-based; settings: for Relative fluorescence intensity: HEK293T, 0.5 μg mRNA per well, 24 hours, proportional to translation efficiency; for Multiple of m6A (relative fluorescence intensity): relative to m6A
Procedure: • (1) HEK293T cells were cultured in DMEM medium containing 10% FBS and penicillin/streptomycin at 37° C. with 5% CO2. • (2)Cells in the culture dish were digested and counted, then spread in a 96-well plate at 10,000 cells per well, and cultured overnight until the cells adhered to the wall. • (3) When the cell density reached approximately 80%, transfection was performed by adding 0.5 μg of mRNA sample and Lipofectamine MessengerMAX Transfection Reagent (Invitrogen) per well according to the manufacturer's instructions. • (4) After the transfected cells were cultured at 37° C. with 5% CO2 for 24 hours, the growth medium was removed from the cells to be tested, and the cells were rinsed with PBS. After centrifugation to remove PBS, 50 μL of 1× lysis buffer was added. The cells and all liquid were transferred to a microcentrifuge tube and centrifuged. • (5) 20 μL of sample was taken and added to 100 μL of Dual-Lumi™ II Luciferase Assay Reagent pre-equilibrated to room temperature, and mixed appropriately. • (6) The mixture was incubated at room temperature (approximately 25° C.) for 5 minutes to stabilize the luminescence signal. Chemiluminescence was detected using a multifunctional microplate reader with a function for detecting chemiluminescence, and the data were recorded.
The relative fluorescence intensity is proportional to the translation efficiency of mRNA.

DCP2 enzyme = target: T1, DCP2 enzyme (Schizosaccharomyces pombe, UniProt O13828); experiment: Decapping enzyme stability test; type: biochemical; settings: for Decapping rate (%) of DCP2 enzyme: 50 U mRNA decapping enzyme, 37° C., 45 minutes
T1 construct: purchased New England Biolabs
T1 sequence (O13828 1-243 limits assumed): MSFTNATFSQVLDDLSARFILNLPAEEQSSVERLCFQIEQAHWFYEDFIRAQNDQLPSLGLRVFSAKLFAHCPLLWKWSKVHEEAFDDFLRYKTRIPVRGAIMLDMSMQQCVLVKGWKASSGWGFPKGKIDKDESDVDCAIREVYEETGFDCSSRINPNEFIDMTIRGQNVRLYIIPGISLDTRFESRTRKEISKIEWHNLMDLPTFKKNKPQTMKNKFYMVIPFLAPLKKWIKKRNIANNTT
T1 sequence (Q9P805 1-127 partner): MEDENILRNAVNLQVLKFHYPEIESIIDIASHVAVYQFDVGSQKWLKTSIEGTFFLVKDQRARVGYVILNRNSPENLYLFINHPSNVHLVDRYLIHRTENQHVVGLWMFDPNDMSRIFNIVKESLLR
T1 sequence (Q10108 155-180 partner limits assumed): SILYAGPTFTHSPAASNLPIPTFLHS
Procedure: […] of RNA purified by polyacrylamide gel electrophoresis (PAGE) was subjected to an enzymatic reaction with 50 U of mRNA decapping enzyme (New England Biolabs) and 1×MDE buffer at 37° C. for 45 minutes. The enzymatic reactants were subjected to PAGE and stained with SYBR Green II (Lonza), followed by observation of the post-electrophoresis gel image on a Typhoon FLA 7000 (GE Healthcare) instrument. The electrophoresis band intensity ratio of RNA capping to RNA decapping was counted using ImageQuant (GE Healthcare) software, and the decapping rate of the decapping enzyme was calculated.

BALB/C mice = experiment: In vivo imaging of Fluc-mRNA LNP expression in mice
Procedure: The LNP preparation containing 5 μg of cap analog-transcribed Fluc-mRNA was intramuscularly injected into female BALB/C mice aged 4 to 6 weeks and weighing 17 to 19 g. At specific time points after administration (6 hours, 12 hours, 24 hours, 48 hours, 96 hours, and 168 hours), the mice were intraperitoneally injected with fluorescence imaging substrate. The mice were then allowed to move freely for 5 minutes, followed by detection of the total radiation intensity of the protein expressed by LNP-carrying mRNA in the mice using an IVIS Spectrum small-animal in vivo imaging system (corresponding to the amount of protein expression).
In the in vivo imaging experiments in mice, the multiple of the total radiation intensity for each group of mice relative to the m6A group is shown in Table 8 (where the total radiation intensity is represented as the given value×10^8 p/s).

[2] = 6 h, 5 μg Fluc-mRNA LNP intramuscular, mice
[3] = 12 h, 5 μg Fluc-mRNA LNP intramuscular, mice
[4] = 24 h, 5 μg Fluc-mRNA LNP intramuscular, mice
[5] = 48 h, 5 μg Fluc-mRNA LNP intramuscular, mice
[6] = 96 h, 5 μg Fluc-mRNA LNP intramuscular, mice
[7] = 168 h, 5 μg Fluc-mRNA LNP intramuscular, mice

| Compound | Particle size [1] | PDI [1] | EE [1] | Relative fluorescence intensity (HEK293T cells) | Multiple of m6A (relative fluorescence intensity) (HEK293T cells) | Decapping rate (%) of DCP2 enzyme (DCP2 enzyme) | Decrease relative to N-7113 (decapping rate) (DCP2 enzyme) | Multiple of total radiation intensity relative to m6A (BALB/C mice; 6 h) | Total radiation intensity (BALB/C mice; [2]) | Multiple of total radiation intensity relative to m6A (BALB/C mice; 12 h) | Total radiation intensity (BALB/C mice; [3]) | Multiple of total radiation intensity relative to m6A (BALB/C mice; 24 h) | Total radiation intensity (BALB/C mice; [4]) | Multiple of total radiation intensity relative to m6A (BALB/C mice; 48 h) | Total radiation intensity (BALB/C mice; [5]) | Multiple of total radiation intensity relative to m6A (BALB/C mice; 96 h) | Total radiation intensity (BALB/C mice; [6]) | Total radiation intensity (BALB/C mice; [7]) | Total radiation intensity (BALB/C mice; at 12 hours) | Total radiation intensity (BALB/C mice; at 48 hours) |
| --- | --- | --- | --- | --- | --- | --- | --- | --- | --- | --- | --- | --- | --- | --- | --- | --- | --- | --- | --- | --- |
| CCO[C@@H]1[C@H](OP(=O)(O)OC[C@H]2O[C@@H](n3cnc4c(=O)[nH]c(N)nc43)[C@H](O)[C@@H]2O)[C@@H](COP(=O)(O)OP(=O)(O)OP(=O)(O)OC[C@H]2O[C@@H]([n+]3cn(C)c4c(=O)[nH]c(N)nc43)[C@H](O)[C@@H]2O)O[C@H]1n1cnc2c(N)ncnc21 [CAP-2′O-ethyl, reference compound] | 81.34 nm | 0.035 | 96.3% | 1.13 | 3.0 | 28.3% | 15.5% | 2.3 | 5.41 ×108 p/s | 2.3 | 4.80 ×108 p/s | 2.6 | 1.73 ×108 p/s | 1.1 | 0.57 ×108 p/s | 2.4 | 0.09 ×108 p/s | 0.02 ×108 p/s | – | – |
| CO[C@@H]1[C@H](OP(=O)(O)OC[C@H]2O[C@@H](n3cnc4c(=O)[nH]c(N)nc43)[C@H](O)[C@@H]2O)[C@@H](COP(=O)(O)OP(=O)(O)OP(=O)(O)OC[C@H]2O[C@@H]([n+]3cn(C)c4c(=O)[nH]c(N)nc43)[C@H](O)[C@@H]2O)O[C@H]1n1cnc2c(N)ncnc21 [N-7113, reference compound] | 87.45 nm | 0.078 | 96.1% | 1.00 | 2.6 | 43.8% | 0.0% | 2.2 | 5.10 ×108 p/s | 2.0 | 4.33 ×108 p/s | 2.3 | 1.49 ×108 p/s | 0.9 | 0.49 ×108 p/s | 2.4 | 0.05 ×108 p/s | 0.02 ×108 p/s | 4.33 ×10^8 p/s | 0.49 ×10^8 p/s |
| CNc1ncnc2c1ncn2[C@@H]1O[C@H](COP(=O)(O)OP(=O)(O)OP(=O)(O)OC[C@H]2O[C@@H]([n+]3cn(C)c4c(=O)[nH]c(N)nc43)[C@H](O)[C@@H]2O)[C@@H](OP(=O)(O)OC[C@H]2O[C@@H](n3cnc4c(=O)[nH]c(N)nc43)[C@H](O)[C@@H]2O)[C@H]1OC [m6A, reference compound] | 75.76 nm | 0.047 | 93.8% | 0.38 | 1.0 | 33.8% | 10.0% | 1.0 | 2.35 ×108 p/s | 1.0 | 2.12 ×108 p/s | 1.0 | 0.66 ×108 p/s | 1.0 | 0.52 ×108 p/s | 1.0 | 0.08 ×108 p/s | 0.02 ×108 p/s | 2.12 ×10^8 p/s | 0.52 ×10^8 p/s |
| COC[C@H]1[C@@H](O)[C@H]([n+]2cn(C)c3c(=O)[nH]c(N)nc32)O[C@@H]1COP(=O)(O)OP(=O)(O)OP(=O)(O)OC[C@H]1O[C@@H](n2cnc3c(N)ncnc32)[C@H](OC)[C@@H]1OP(=O)(O)OC[C@H]1O[C@@H](n2cnc3c(=O)[nH]c(N)nc32)[C@H](O)[C@@H]1O [HN3002, reference compound] | 75.35 nm | 0.058 | 95.1% | – | 3.0 | 23.3% | 20.5% | – | – | – | – | – | – | – | – | – | – | – | – | – |
